Values of other authors as cited in patent US20260110035A1, “DNA REPAIR SIGNATURE AND PREDICTION OF RESPONSE FOLLOWING CANCER THERAPY” (priority 2022, published 2026).

Test system: stage II/III TNBC
Conditions: BrighTNess; only carboplatin (Arm B) vs veliparib+carboplatin (Arm A), with paclitaxel followed by AC

N.N.O=C([O-])C1(C(=O)[O-])CCC1.[Pt+2] [carboplatin]
difference in pCR rates between Arm B and Arm A: no substantial difference
